Results from PubChem BioAssay (NCI).
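Test compounds were applied to cells in 96-well plates for 48 hours at 5 doses. TGI: concentration producing complete growth inhibition.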 Where a SMILES comes first, the peptide text is derived from it. The star is where a group is joined. Boc = CC(C)(C)OC(=O)*; OBn = c1ccc(CO*)cc1

What follows are compounds tested on COLO 205 colon (assay: NCI-60 cell line screen, 48 h).
`COc1cc(C2SCC(=O)N2c2ccccc2Cl)cc(OC)c1OC` (stereo not drawn) was tested, and the TGI was > 100 µM. With `CN(C)c1ccc(/C=N\NC(=O)c2ccccc2Nc2ccccc2C(=O)N/N=C/c2ccc(N(C)C)cc2)cc1` the TGI was > 100 µM. For `C=C1C(=O)OC2/C=C(\CO)C3OC3C3OC3(C)CC(OC(=O)/C(=C/C)CO)C12` (stereo not drawn), the TGI was > 100 µM. `COc1cc(/C=C(\C#N)c2nc3ccccc3o2)ccc1O` showed a TGI of 33 µM. With `COc1ccc2cc(CNCCCCCCCCCCCCNCc3ccc4cc(OC)ccc4c3)ccc2c1` the TGI was > 55.9 µM. `COC(=O)c1c(O)ccc2c1c1c(n2Cc2ccccc2)C(=O)c2ccccc2C1=O` gave a TGI of 3.32 µM. For `Cc1csc2nc3c(cnn3C)c(=S)n12`, the TGI was > 10 µM. `Cc1cc(C)nc(NS(=O)(=O)c2ccc(NNc3c4ccccc4nc4c(C(=O)Nc5ccc(S(=O)(=O)Nc6ncccn6)cc5)cccc34)cc2)n1` showed a TGI of 54.3 µM. With `COCC(N=CN1CCCc2ccccc2[C@@H]1CCCCl)C(C)(C)C` (stereo partly drawn) the TGI was 10.3 µM. With `CNc1c2cccc(C)c2nc2c(C(=O)NCCN(C)C)cccc12` the TGI was 0.278 µM. For `O=C1CC(NC(=O)C(F)(F)F)c2c1csc2Br` (stereo not drawn), the TGI was > 100 µM. `CCC(Sc1cc(Cl)c(C)cc1S(=O)(=O)Nc1nc(N)nc(N(C)C)n1)C(=O)O` (stereo not drawn) was tested, and the TGI was > 10 µM. With `O=C(N/N=C/c1ccc2c(c1)OCO2)Nc1ccccc1Cl` the TGI was 5.52 µM. With `C[C@]12C[C@H](c3ccccc3)Nc3ccccc3N1C(c1ccccc1)=NO2` the TGI was > 100 µM. With `O=c1c(C=Nc2ccccc2Cl)c(O)n(-c2ccccc2)c(=O)n1-c1ccccc1` the TGI was > 100 µM. In the case of `CCOC(=O)NNC(=O)C1CSC(c2ccccc2)N1C(C)=O` (stereo not drawn), the TGI is reported as > 100 µM. For `Cc1ccc2nc(CN3CCCC(O)C3)cc(=O)n2c1` (stereo not drawn), the TGI was > 100 µM. For `CCOC(=O)C(SCCO)C(C(=O)OCC)n1cnc2c(N)ncnc21` (stereo not drawn), the TGI was 20 µM. Work on `COc1ccc2nc3c([N+](=O)[O-])ccc4c3c(c2c1)N=CN4CCCN(C)C` yielded a TGI of 5.77 µM. `CC(C)C(NC(=O)C(Cc1ccccc1)NC(=O)OC(C)(C)C)C(=O)NCC(=O)OCc1ccccc1` (stereo not drawn) (Boc-Phe-Val-Gly-OBn; configuration not given here) gave a TGI of 35.5 µM.

What follows are compounds tested on NCI-H460 lung (assay: NCI-60 cell line screen, 48 h).
`CCOC(=O)C1=CN/C(=C(/C)C(=O)OC)SC1C(=O)OCC` (stereo not drawn) was tested, and the TGI was > 100 µM. In the case of `Cc1ccc2c(c1)C(=O)/C(=N/Nc1ccc(Cl)cc1)CCO2`, the TGI is reported as > 100 µM. For `COc1cc(C2SCC(=O)N2c2ccccc2Cl)cc(OC)c1OC` (stereo not drawn), the TGI was > 100 µM. `CN(C)c1ccc(/C=N\NC(=O)c2ccccc2Nc2ccccc2C(=O)N/N=C/c2ccc(N(C)C)cc2)cc1` was tested, and the TGI was > 100 µM. `C=C1C(=O)OC2/C=C(\CO)C3OC3C3OC3(C)CC(OC(=O)/C(=C/C)CO)C12` (stereo not drawn) was tested, and the TGI was > 100 µM. Work on `COc1cc(/C=C(\C#N)c2nc3ccccc3o2)ccc1O` yielded a TGI of 48.4 µM. `COc1ccc2cc(CNCCCCCCCCCCCCNCc3ccc4cc(OC)ccc4c3)ccc2c1` gave a TGI of 35.8 µM. For `COC(=O)c1c(O)ccc2c1c1c(n2Cc2ccccc2)C(=O)c2ccccc2C1=O`, the TGI was 59.8 µM. For `Cc1csc2nc3c(cnn3C)c(=S)n12`, the TGI was > 100 µM. With `Cc1cc(C)nc(NS(=O)(=O)c2ccc(NNc3c4ccccc4nc4c(C(=O)Nc5ccc(S(=O)(=O)Nc6ncccn6)cc5)cccc34)cc2)n1` the TGI was 92 µM. `COCC(N=CN1CCCc2ccccc2[C@@H]1CCCCl)C(C)(C)C` (stereo partly drawn) gave a TGI of 97.2 µM. Work on `CNc1c2cccc(C)c2nc2c(C(=O)NCCN(C)C)cccc12` yielded a TGI of 0.206 µM. For `O=C1CC(NC(=O)C(F)(F)F)c2c1csc2Br` (stereo not drawn), the TGI was > 100 µM. `CCC(Sc1cc(Cl)c(C)cc1S(=O)(=O)Nc1nc(N)nc(N(C)C)n1)C(=O)O` (stereo not drawn) was tested, and the TGI was > 10 µM. `O=C(N/N=C/c1ccc2c(c1)OCO2)Nc1ccccc1Cl` showed a TGI of 16.6 µM. For `C[C@]12C[C@H](c3ccccc3)Nc3ccccc3N1C(c1ccccc1)=NO2`, the TGI was > 100 µM. `O=c1c(C=Nc2ccccc2Cl)c(O)n(-c2ccccc2)c(=O)n1-c1ccccc1` was tested, and the TGI was > 100 µM. With `CCOC(=O)NNC(=O)C1CSC(c2ccccc2)N1C(C)=O` (stereo not drawn) the TGI was > 100 µM. `Cc1ccc2nc(CN3CCCC(O)C3)cc(=O)n2c1` (stereo not drawn) was tested, and the TGI was > 100 µM. In the case of `CCOC(=O)C(SCCO)C(C(=O)OCC)n1cnc2c(N)ncnc21` (stereo not drawn), the TGI is reported as 18 µM. In the case of `COc1ccc2nc3c([N+](=O)[O-])ccc4c3c(c2c1)N=CN4CCCN(C)C`, the TGI is reported as 16.3 µM. In the case of `CC(C)C(NC(=O)C(Cc1ccccc1)NC(=O)OC(C)(C)C)C(=O)NCC(=O)OCc1ccccc1` (stereo not drawn) (Boc-Phe-Val-Gly-OBn; configuration not given here), the TGI is reported as 37.9 µM.

Each compound was assayed on SNB-19 CNS (assay: NCI-60 cell line screen, 48 h).
With `CCOC(=O)C1=CN/C(=C(/C)C(=O)OC)SC1C(=O)OCC` (stereo not drawn) the TGI was > 100 µM. For `Cc1ccc2c(c1)C(=O)/C(=N/Nc1ccc(Cl)cc1)CCO2`, the TGI was > 100 µM. With `COc1cc(C2SCC(=O)N2c2ccccc2Cl)cc(OC)c1OC` (stereo not drawn) the TGI was > 100 µM. With `CN(C)c1ccc(/C=N\NC(=O)c2ccccc2Nc2ccccc2C(=O)N/N=C/c2ccc(N(C)C)cc2)cc1` the TGI was > 100 µM. `C=C1C(=O)OC2/C=C(\CO)C3OC3C3OC3(C)CC(OC(=O)/C(=C/C)CO)C12` (stereo not drawn) was tested, and the TGI was > 100 µM. For `COc1cc(/C=C(\C#N)c2nc3ccccc3o2)ccc1O`, the TGI was > 100 µM. With `COc1ccc2cc(CNCCCCCCCCCCCCNCc3ccc4cc(OC)ccc4c3)ccc2c1` the TGI was 31.3 µM. Work on `COC(=O)c1c(O)ccc2c1c1c(n2Cc2ccccc2)C(=O)c2ccccc2C1=O` yielded a TGI of 28.7 µM. In the case of `Cc1csc2nc3c(cnn3C)c(=S)n12`, the TGI is reported as > 100 µM. `Cc1cc(C)nc(NS(=O)(=O)c2ccc(NNc3c4ccccc4nc4c(C(=O)Nc5ccc(S(=O)(=O)Nc6ncccn6)cc5)cccc34)cc2)n1` was tested, and the TGI was > 100 µM. Compound `COCC(N=CN1CCCc2ccccc2[C@@H]1CCCCl)C(C)(C)C` (stereo partly drawn) has a TGI of 65.1 µM.
